# Measured values as given in patent US20150005311A1, “IP receptor agonist heterocyclic compounds” (NOVARTIS AG, priority 2012, published 2015).
# Target: T1, IP receptor (Homo sapiens, UniProt P43119)
# T1 construct: expressed in transfected cells; host or cells: CHO cells stably expressing the IP receptor (CHO-IP)
# Test: cAMP accumulation in CHO cells stably expressing the IP receptor (CHO-IP), PerkinElmer AlphaScreen assay
# Format: cell-based
# Settings: 1 hour at room temperature, 4-parameter logistic fit
# Experimental: Activity of compounds at the IP receptor (IP receptor) is assessed by measuring cAMP accumulation in CHO cells stably expressing the IP receptor (CHO-IP) using the PerkinElmer AlphaScreen assay. This technology measures the endogenous production of cAMP, in a non-radioactive luminescence proximity homogenous assay. A biological reaction occurs between streptavidin coated donor beads, biotinylated cAMP and anti-cAMP acceptor beads, bringing the donor and acceptor beads close enough together so that upon excitation a fluorescence signal is produced. On production of endogenous cAMP, competition between the biotinylated cAMP and cellular-derived cAMP causes a reduction in the fluorescent signal. The reduction in signal is proportional to the amount of cAMP being produced, thus it is possible to quantify the amount of cAMP being produced on stimulation with agonist.
# Test and reference compounds are prepared at 100×[final] in 100% DMSO, and diluted 1:3 using a Biomek Fx (Beckman Coulter). This is followed by an intermediate dilution to give 5×[final] in assay buffer (HBSS containing 5 mM HEPES, 0.1% (w/v) BSA). 5 μL of 5×[final] test compounds, reference compounds and buffer/DMSO control are then transferred to a 384-well white OptiPlate, containing 20 μL CHO-IP cell suspension (15,000 cells/well, prepared from frozen), and plate is incubated at room temperature for 1 hour. A cAMP standard curve is constructed for each experiment (concentration range of 10000 nM to 0.001 nM, in assay buffer) and 25 μL of each concentration added to the last two columns of the assay plate. The incubation is terminated by the addition of lysis buffer (dH2O; 0.3% (v v^−1) Tween-20) containing 20 units mL^−1 streptavidin coated donor beads and biotinylated cAMP (pre-incubated for 30 minutes) and 20 units mL^−1 anti-cAMP acceptor beads, which are added to the lysis buffer just before addition to the assay plate. The assay plate is then incubated at room temperature in the dark, for 60 minutes with gentle shaking, and read on the Envision plate reader (Perkin Elmer).
# The raw data of the reference compounds, test compounds and controls are converted into cAMP concentrations, using the cAMP standard curve, in GraphPadPrism (GraphPad Software Inc). EC50 as well as maximal values of the agonist curves are determined using a 4-parameter logistic equation. The % maximum response values of all test compounds are determined using the top of the treprostinil concentration-response curve.
# T1 sequence (P43119 whole entry): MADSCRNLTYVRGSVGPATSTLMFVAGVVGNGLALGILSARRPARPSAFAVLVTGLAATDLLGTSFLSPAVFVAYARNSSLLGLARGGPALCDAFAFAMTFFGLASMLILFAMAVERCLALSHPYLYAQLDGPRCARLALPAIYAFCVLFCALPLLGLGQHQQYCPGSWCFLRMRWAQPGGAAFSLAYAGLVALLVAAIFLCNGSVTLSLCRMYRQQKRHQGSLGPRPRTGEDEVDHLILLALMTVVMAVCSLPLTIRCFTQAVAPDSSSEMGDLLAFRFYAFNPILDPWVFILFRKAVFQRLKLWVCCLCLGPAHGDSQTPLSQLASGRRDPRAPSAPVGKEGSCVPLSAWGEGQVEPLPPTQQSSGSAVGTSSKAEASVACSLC
row,Compound,EC50
1,"Cc1ccc(-c2nc3c(nc2-c2ccc(C)cc2)N(CCCCCCc2nnn[nH]2)CC(O)C3)cc1 (racemic) [Example 3, rac-5-(6-(1H-Tetrazol-5-yl)hexyl)-2,3-di-p-tolyl-5,6,7,8-tetrahydropyrido[2,3-b]pyrazin-7-ol]",0.04 nM
2,"Cc1ccc(-c2nc3c(nc2-c2ccc(C)cc2)N(CCCCCc2nnn[nH]2)CC(O)C3)cc1 (racemic) [Example 4, rac-5-(5-(1H-Tetrazol-5-yl)pentyl)-2,3-di-p-tolyl-5,6,7,8-tetrahydropyrido[3,2-b]pyrazin-7-ol]",5.63 nM
3,"Cc1ccc(-c2nc3c(nc2-c2ccc(C)cc2)N(CCCCCCc2nnn[nH]2)CC(O)C3)cc1 (single isomer, unassigned) [Example 3a, (R)- or (S)-5-(6-(1H-tetrazol-5-yl)hexyl)-2,3-di-p-tolyl-5,6,7,8-tetrahydropyrido[2,3-b]pyrazin-7-ol]]",2.06 nM
4,"Cc1ccc(-c2nc3c(nc2-c2ccc(C)cc2)N(CCCCCCc2nnn[nH]2)CC(O)C3)cc1 (single isomer, unassigned) [Example 3b, (R)- or (S)-5-(6-(1H-tetrazol-5-yl)hexyl)-2,3-di-p-tolyl-5,6,7,8-tetrahydropyrido[2,3-b]pyrazin-7-ol]]",1.71 nM
5,"Cc1ccc(-c2nc3c(nc2-c2ccc(C)cc2)N(CCCCCc2nnn[nH]2)CC(O)C3)cc1 (single isomer, unassigned) [Example 4a, (R)- or (S)-5-(5-(1H-Tetrazol-5-yl)pentyl)-2,3-di-p-tolyl-5,6,7,8-tetrahydropyrido[2,3-b]pyrazin-7-ol]]",0.62 nM
6,"Cc1ccc(-c2nc3c(nc2-c2ccc(C)cc2)N(CCCCCc2nnn[nH]2)CC(O)C3)cc1 (single isomer, unassigned) [Example 4b, (R)- or (S)-5-(5-(1H-Tetrazol-5-yl)pentyl)-2,3-di-p-tolyl-5,6,7,8-tetrahydropyrido[2,3-b]pyrazin-7-ol]]",0.86 nM
7,"Cc1ccc(-c2nc3c(nc2-c2ccc(C)cc2)N(CCCCCCc2nnn[nH]2)CCC3)cc1 [Example 1, 5-(6-(1H-Tetrazol-5-yl)hexyl)-2,3-di-p-tolyl-5,6,7,8-tetrahydropyrido[2,3-b]pyrazine]",0.11 nM
8,"Cc1ccc(-c2nc3c(nc2-c2ccc(C)cc2)N(CCCCCc2nnn[nH]2)CCC3)cc1 [Example 2, 5-(5-(1H-tetrazol-5-yl)pentyl)-2,3-di-p-tolyl-5,6,7,8-tetrahydropyrido[2,3-b]pyrazine]",0.07 nM
